Test results from PubChem BioAssay (NCI).
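Where inhibition never reached the appropriate level, the endpoint shown equals the highest concentration tested. Otherwise, values were interpolated linearly from a five-concentration, 48-hour dose response in 96-well plates. TGI is the concentration that stops growth completely.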

What was measured:
Test in all cases: growth of human tumour cells (NCI), 48 h
786-0 renal = system: 786-0 renal
A549 NSCLC = system: A549 NSCLC
ACHN renal = system: ACHN renal
BT-549 breast = system: BT-549 breast
CAKI-1 renal = system: CAKI-1 renal
CCRF-CEM leukemia = system: CCRF-CEM leukemia
COLO 205 colon = system: COLO 205 colon
DU-145 prostate = system: DU-145 prostate
EKVX NSCLC = system: EKVX NSCLC
HCC-2998 colon = system: HCC-2998 colon
HCT-116 colon = system: HCT-116 colon
HCT-15 colon = system: HCT-15 colon
HL-60(TB) leukemia = system: HL-60(TB) leukemia
HOP-62 NSCLC = system: HOP-62 NSCLC
HOP-92 NSCLC = system: HOP-92 NSCLC
HS 578T breast = system: HS 578T breast
HT29 colon = system: HT29 colon
IGROV1 ovarian = system: IGROV1 ovarian
K-562 leukemia = system: K-562 leukemia
KM12 colon = system: KM12 colon
LOX IMVI melanoma = system: LOX IMVI melanoma
M14 melanoma = system: M14 melanoma
MALME-3M melanoma = system: MALME-3M melanoma
MCF7 breast = system: MCF7 breast
MDA-MB-231 breast = system: MDA-MB-231 breast
MDA-MB-435 = system: MDA-MB-435
MDA-N = system: MDA-N
MOLT-4 leukemia = system: MOLT-4 leukemia
NCI-H226 lung = system: NCI-H226 lung
NCI-H460 lung = system: NCI-H460 lung
NCI-H522 lung = system: NCI-H522 lung
NCI/ADR-RES ovarian = system: NCI/ADR-RES ovarian
OVCAR-4 ovarian = system: OVCAR-4 ovarian
OVCAR-5 ovarian = system: OVCAR-5 ovarian
OVCAR-8 ovarian = system: OVCAR-8 ovarian
PC-3 prostate = system: PC-3 prostate
RPMI-8226 leukemia = system: RPMI-8226 leukemia
RXF 393 renal = system: RXF 393 renal
SF-268 CNS = system: SF-268 CNS
SF-295 CNS = system: SF-295 CNS
SF-539 CNS = system: SF-539 CNS
SK-MEL-2 melanoma = system: SK-MEL-2 melanoma
SK-MEL-28 melanoma = system: SK-MEL-28 melanoma
SK-MEL-5 melanoma = system: SK-MEL-5 melanoma
SK-OV-3 ovarian = system: SK-OV-3 ovarian
SN12C renal = system: SN12C renal
SNB-19 CNS = system: SNB-19 CNS
SNB-75 CNS = system: SNB-75 CNS
SR leukemia = system: SR leukemia
SW-620 colon = system: SW-620 colon
T-47D breast = system: T-47D breast
TK-10 renal = system: TK-10 renal
U251 CNS = system: U251 CNS
UACC-257 melanoma = system: UACC-257 melanoma
UACC-62 melanoma = system: UACC-62 melanoma
UO-31 renal = system: UO-31 renal
NCI-H23 lung = system: NCI-H23 lung
OVCAR-3 ovarian = system: OVCAR-3 ovarian

N#C/C(=C\c1ccc(Br)cc1)c1nc(-c2cc3ccccc3oc2=O)cs1
TGI (786-0 renal): > 50 µM | TGI (A549 NSCLC): > 50 µM | TGI (ACHN renal): 26.1 µM | TGI (BT-549 breast): 14.5 µM | TGI (CAKI-1 renal): > 50 µM | TGI (CCRF-CEM leukemia): > 50 µM | TGI (COLO 205 colon): > 50 µM | TGI (DU-145 prostate): > 50 µM | TGI (EKVX NSCLC): > 50 µM | TGI (HCC-2998 colon): > 50 µM | TGI (HCT-116 colon): > 50 µM | TGI (HCT-15 colon): > 50 µM | TGI (HL-60(TB) leukemia): > 50 µM | TGI (HOP-62 NSCLC): 20.1 µM | TGI (HOP-92 NSCLC): 36.6 µM | TGI (HS 578T breast): 41.1 µM | TGI (HT29 colon): > 50 µM | TGI (IGROV1 ovarian): > 50 µM | TGI (K-562 leukemia): > 50 µM | TGI (KM12 colon): > 50 µM | TGI (LOX IMVI melanoma): > 50 µM | TGI (M14 melanoma): > 50 µM | TGI (MALME-3M melanoma): 27.6 µM | TGI (MCF7 breast): > 50 µM | TGI (MDA-MB-231 breast): 20.6 µM | TGI (MDA-MB-435): > 50 µM | TGI (MDA-N): > 50 µM | TGI (MOLT-4 leukemia): > 50 µM | TGI (NCI-H226 lung): > 50 µM | TGI (NCI-H460 lung): > 50 µM | TGI (NCI-H522 lung): 16.1 µM | TGI (NCI/ADR-RES ovarian): 34.4 µM | TGI (OVCAR-4 ovarian): > 50 µM | TGI (OVCAR-5 ovarian): > 50 µM | TGI (OVCAR-8 ovarian): > 50 µM | TGI (PC-3 prostate): > 50 µM | TGI (RPMI-8226 leukemia): > 50 µM | TGI (RXF 393 renal): > 50 µM | TGI (SF-268 CNS): > 50 µM | TGI (SF-295 CNS): > 50 µM | TGI (SF-539 CNS): 40.4 µM | TGI (SK-MEL-2 melanoma): > 50 µM | TGI (SK-MEL-28 melanoma): > 50 µM | TGI (SK-MEL-5 melanoma): > 50 µM | TGI (SK-OV-3 ovarian): > 50 µM | TGI (SN12C renal): > 50 µM | TGI (SNB-19 CNS): 24.1 µM | TGI (SNB-75 CNS): 30.6 µM | TGI (SR leukemia): > 50 µM | TGI (SW-620 colon): > 50 µM | TGI (T-47D breast): > 50 µM | TGI (TK-10 renal): 22.9 µM | TGI (U251 CNS): 20.1 µM | TGI (UACC-257 melanoma): 33.2 µM | TGI (UACC-62 melanoma): 23.7 µM | TGI (UO-31 renal): > 50 µM

C/C(=N/NC(=S)NCCc1ccccn1)c1cnccn1
TGI (786-0 renal): 57.2 µM | TGI (A549 NSCLC): > 100 µM | TGI (ACHN renal): > 100 µM | TGI (BT-549 breast): > 100 µM | TGI (CAKI-1 renal): > 100 µM | TGI (CCRF-CEM leukemia): 68.9 µM | TGI (COLO 205 colon): > 100 µM | TGI (DU-145 prostate): > 100 µM | TGI (EKVX NSCLC): > 100 µM | TGI (HCC-2998 colon): > 100 µM | TGI (HCT-116 colon): > 100 µM | TGI (HOP-62 NSCLC): > 100 µM | TGI (HOP-92 NSCLC): > 100 µM | TGI (HS 578T breast): > 100 µM | TGI (HT29 colon): > 100 µM | TGI (IGROV1 ovarian): > 100 µM | TGI (KM12 colon): > 100 µM | TGI (LOX IMVI melanoma): 40.1 µM | TGI (M14 melanoma): > 100 µM | TGI (MALME-3M melanoma): > 100 µM | TGI (MDA-MB-231 breast): > 100 µM | TGI (MDA-MB-435): > 100 µM | TGI (MDA-N): > 100 µM | TGI (MOLT-4 leukemia): 41.4 µM | TGI (NCI-H23 lung): > 100 µM | TGI (NCI-H460 lung): > 100 µM | TGI (NCI-H522 lung): > 100 µM | TGI (OVCAR-3 ovarian): > 100 µM | TGI (OVCAR-4 ovarian): > 100 µM | TGI (OVCAR-5 ovarian): > 100 µM | TGI (PC-3 prostate): > 100 µM | TGI (RPMI-8226 leukemia): 80 µM | TGI (SF-268 CNS): > 100 µM | TGI (SF-295 CNS): 63.8 µM | TGI (SK-MEL-2 melanoma): > 100 µM | TGI (SK-MEL-28 melanoma): > 100 µM | TGI (SK-MEL-5 melanoma): > 100 µM | TGI (SK-OV-3 ovarian): 70.5 µM | TGI (SN12C renal): 74.7 µM | TGI (SNB-19 CNS): > 100 µM | TGI (SNB-75 CNS): > 100 µM | TGI (SR leukemia): 65.9 µM | TGI (SW-620 colon): > 100 µM | TGI (T-47D breast): > 100 µM | TGI (TK-10 renal): > 100 µM | TGI (U251 CNS): > 100 µM | TGI (UACC-257 melanoma): > 100 µM | TGI (UACC-62 melanoma): 64.1 µM | TGI (UO-31 renal): 90.2 µM
